Reference: patent US4801613A, “Bradykinin antagonist peptides” (Nova Technology Limited Partnership, priority 1987, dated 1989)
Read-outs that look alike come from different tables or passages of the source. Non-standard residues stand in square brackets, D forms with d. Residues, ends and D or L forms follow the SMILES beside them. No end group written: not given here. Hyp = O=C(O)[C@@H]1C[C@@H](O)CN1; 2Thi = N[C@@H](Cc1cccs1)C(=O)O; d2Thi = N[C@H](Cc1cccs1)C(=O)O

Assays:
Type in all cases: cell-based
[1] = test system: isolated rat uterus
Method: (§1) The bradykinin antagonists were assayed on isolated rat uterus in natural or induced estrus and on guinea pig ileum, according to the commonly accepted assay methods for bradykinin and related kinins as described by Trautschold (Handbook of Expt. Pharmacol. Vol. 25, Springer Verlag, pp 53-55, 1970) for inhibition of the myotropic activity of bradykinin. The inhibition potencies, as determined according to the commonly accepted manner described by Schild for antagonists of biologically active compounds (Br. J. Pharmacol. 2:189, 1947), are determined on isolated rat uterus (RUT) and isolated guinea pig ileum (GPI). In the assays, a dose-response curve is determined for the reference substance bradykinin. The dose of bradykinin which produced a half maximal contraction of tissue is the ED50 dose. An amount of bradykinin equivalent to twice the ED50 dose is administered to the tissue 30 seconds after the start of incubation of the tissue with a dose of antagonist. Doses of antagonist are increased in this protocol until pre-incubation with a dose of antagonist reduces the contraction in response to the double ED50 dose of bradykinin to response of a single ED50 dose of bradykinin. The pA2 value represents the negative logarithm of the molar concentration of antagonist necessary to reduce the response of a double ED50 dose of bradykinin to that of an ED50 dose. One unit of pA2 value represents an order of magnitude change in potency. For comparison, the negative log of the dose of BK, the dose which causes half maximal contraction of the tissues, is commonly known as the pD2 value. The pD2 value for bradykinin is 7.9 on the rat uterus and 7.4 on the guinea pig ileum.

[2] = test system: guinea pig ileum
Method: as §1
(§2) In each case, as shown, the BK-related antagonists inhibited contractions produced by BK-related agonists, but had no effect on the non-kinin myotropic peptide substances. The inhibition potencies are listed as pA2 values as described above.

[3] = test system: isolated guinea pig ileum
Method: as §1, §2

[4] = isolated rat uterus, vs double ED50 dose of bradykinin, Schild
[5] = isolated guinea pig ileum, vs double ED50 dose of bradykinin, Schild

For `N=C(N)NCCC[C@H](NC(=O)[C@H](Cc1ccccc1)NC(=O)[C@@H](Cc1ccccc1)NC(=O)[C@H](CO)NC(=O)[C@H](Cc1ccccc1)NC(=O)CNC(=O)[C@@H]1CCCN1C(=O)[C@@H]1CCCN1C(=O)[C@@H](N)CCCNC(=N)N)C(=O)O` [Example 1, Arg-Pro-Pro-Gly-Phe-Ser-DPhe-Phe-Arg] (H-RPPGFS[dF]FR-OH), the “RUT AG = agonist potency relative to BK = 100” value [1] was 1%, the “GUINEA PIG ILEUM KAL (pA2)” value [2] was 5.6 and the “GUINEA PIG ILEUM MK--BK (pA2)” value [2] was 6.0. For the same compound, the “GUINEA PIG ILEUM BK (pA2)” value [3] was 5.0.

Work on `N=C(N)NCCC[C@H](NC(=O)[C@H](Cc1ccccc1)NC(=O)[C@@H](Cc1cccs1)NC(=O)[C@H](CO)NC(=O)[C@H](Cc1ccccc1)NC(=O)CNC(=O)[C@@H]1CCCN1C(=O)[C@@H]1CCCN1C(=O)[C@@H](N)CCCNC(=N)N)C(=O)O` [Example 2, Arg-Pro-Pro-Gly-Phe-Ser-DThi-Phe-Arg] (H-RPPGFS[d2Thi]FR-OH) yielded a pA2/GPI [3] of 4.6.

Compound `N=C(N)NCCC[C@H](NC(=O)[C@H](Cc1ccccc1)NC(=O)[C@@H](Cc1ccccc1)NC(=O)[C@@H](Cc1ccccc1)NC(=O)[C@H](Cc1ccccc1)NC(=O)CNC(=O)[C@@H]1CCCN1C(=O)[C@@H]1CCCN1C(=O)[C@@H](N)CCCNC(=N)N)C(=O)O` [Example 4, Arg-Pro-Pro-Gly-Phe-DPhe-DPhe-Phe-Arg] (H-RPPGF[dF][dF]FR-OH) has a pA2/GPI [3] of 5.2.

In the case of `N=C(N)NCCC[C@H](NC(=O)[C@H](Cc1cccs1)NC(=O)[C@@H](Cc1cccs1)NC(=O)[C@H](CO)NC(=O)[C@H](Cc1cccs1)NC(=O)CNC(=O)[C@@H]1CCCN1C(=O)[C@@H]1CCCN1C(=O)[C@@H](N)CCCNC(=N)N)C(=O)O` [Example 7, Arg-Pro-Pro-Gly-Thi-Ser-DThi-Thi-Arg] (H-RPPG[2Thi]S[d2Thi][2Thi]R-OH), the pA2/RUT [1] is reported as 4.2 and the pA2/GPI [3] is reported as 5.8.

With `N=C(N)NCCC[C@@H](N)C(=O)N[C@@H](CCCNC(=N)N)C(=O)N1CCC[C@H]1C(=O)N1CCC[C@H]1C(=O)NCC(=O)N[C@@H](Cc1ccccc1)C(=O)N[C@@H](CO)C(=O)N[C@H](Cc1ccccc1)C(=O)N[C@@H](Cc1ccccc1)C(=O)N[C@@H](CCCNC(=N)N)C(=O)O` [Example 10, DArg-Arg-Pro-Pro-Gly-Phe-Ser-DPhe-Phe-Arg] the “RUT AG = agonist potency relative to BK = 100” value [1] was 0.1%, the “GUINEA PIG ILEUM KAL (pA2)” value ([2]; agonist kallidin (Lys-BK)) was 6.0 and the “GUINEA PIG ILEUM MK--BK (pA2)” value ([2]; agonist methionyl-lysyl-BK) was 6.3. The “GPI pA2” value [3] was 5.0 and the “GUINEA PIG ILEUM BK (pA2)” value [3] was 5.6.

In the case of `N=C(N)NCCC[C@@H](N)C(=O)N[C@@H](CCCNC(=N)N)C(=O)N1CCC[C@H]1C(=O)N1CCC[C@@H]1C(=O)NCC(=O)N[C@@H](Cc1ccccc1)C(=O)N[C@@H](CO)C(=O)N[C@H](Cc1ccccc1)C(=O)N[C@@H](Cc1ccccc1)C(=O)N[C@@H](CCCNC(=N)N)C(=O)O` [Example 11, DArg-Arg-Pro-DPro-Gly-Phe-Ser-DPhe-Phe-Arg], the “RUT pA2” value [1] is reported as 4.6 and the pA2/RUT [1] is reported as 4.0.

`N=C(N)NCCC[C@H](NC(=O)[C@H](Cc1ccccc1)NC(=O)[C@@H](Cc1ccccc1)NC(=O)[C@H](CO)NC(=O)[C@H](Cc1ccccc1)NC(=O)CNC(=O)[C@@H]1CCCN1C(=O)[C@@H]1CCCN1C(=O)[C@H](CCCNC(=N)N)NC(=O)[C@H](CCCCN)NC(=O)[C@@H](N)CCCCN)C(=O)O` [Example 13, Lys-Lys-Arg-Pro-Pro-Gly-Phe-Ser-DPhe-Phe-Arg] (H-KKRPPGFS[dF]FR-OH) showed a pA2/GPI [3] of 5.1.

Work on `N=C(N)NCCC[C@H](NC(=O)[C@H](Cc1cccs1)NC(=O)[C@@H](Cc1ccccc1)NC(=O)[C@H](CO)NC(=O)[C@H](Cc1cccs1)NC(=O)CNC(=O)[C@@H]1CCCN1C(=O)[C@@H]1CCCN1C(=O)[C@H](CCCNC(=N)N)NC(=O)[C@H](CCCCN)NC(=O)[C@@H](N)CCCCN)C(=O)O` [Example 14, Lys-Lys-Arg-Pro-Pro-Gly-Thi-Ser-DPhe-Thi-Arg] (H-KKRPPG[2Thi]S[dF][2Thi]R-OH) yielded a pA2/RUT [1] of 6.0 and a pA2/GPI [3] of 5.3.

Compound `N=C(N)NCCC[C@@H](N)C(=O)N[C@@H](CCCNC(=N)N)C(=O)N1CCC[C@H]1C(=O)N1CCC[C@@H]1C(=O)NCC(=O)N[C@@H](Cc1cccs1)C(=O)N[C@@H](CO)C(=O)N[C@H](Cc1ccccc1)C(=O)N[C@@H](Cc1cccs1)C(=O)N[C@@H](CCCNC(=N)N)C(=O)O` [Example 16, DArg-Arg-Pro-DPro-Gly-Thi-Ser-DPhe-Thi-Arg] (H-[dR]RP[dP]G[2Thi]S[dF][2Thi]R-OH) has a pA2/RUT [1] of 5.2.

Compound `N=C(N)NCCC[C@H](NC(=O)[C@H](Cc1cccs1)NC(=O)[C@@H](Cc1ccccc1)NC(=O)[C@H](CO)NC(=O)[C@H](Cc1cccs1)NC(=O)CNC(=O)[C@@H]1CCCN1C(=O)[C@@H]1C[C@@H](O)CN1C(=O)[C@@H](N)CCCNC(=N)N)C(=O)O` [Example 18, Arg-Hyp-Pro-Gly-Thi-Ser-DPhe-Thi-Arg] (H-R[Hyp]PG[2Thi]S[dF][2Thi]R-OH) has a pA2/RUT [1] of 5.6.

`N=C(N)NCCC[C@H](NC(=O)[C@H](Cc1cccs1)NC(=O)[C@@H](Cc1ccccc1)NC(=O)[C@H](CO)NC(=O)[C@H](Cc1cccs1)NC(=O)CNC(=O)[C@@H]1C[C@@H](O)CN1C(=O)[C@@H]1CCCN1C(=O)[C@@H](N)CCCNC(=N)N)C(=O)O` [Example 20, Arg-Pro-Hyp-Gly-Thi-Ser-DPhe-Thi-Arg] (H-RP[Hyp]G[2Thi]S[dF][2Thi]R-OH) was tested, and the pA2/RUT [1] was 7.0 and the pA2/GPI [3] was 4.7.

`N=C(N)NCCC[C@@H](N)C(=O)N[C@@H](CCCNC(=N)N)C(=O)N1CCC[C@H]1C(=O)N1C[C@H](O)C[C@H]1C(=O)NCC(=O)N[C@@H](Cc1cccs1)C(=O)N[C@@H](CO)C(=O)N[C@H](Cc1ccccc1)C(=O)N[C@@H](Cc1cccs1)C(=O)N[C@@H](CCCNC(=N)N)C(=O)O` [Example 21, DArg-Arg-Pro-Hyp-Gly-Thi-Ser-DPhe-Thi-Arg] (H-[dR]RP[Hyp]G[2Thi]S[dF][2Thi]R-OH) was tested, and the pA2/RUT [1] was 7.2.

`N=C(N)NCCC[C@H](NC(=O)[C@H](Cc1cccs1)NC(=O)[C@@H](Cc1ccccc1)NC(=O)[C@H](CO)NC(=O)[C@H](Cc1cccs1)NC(=O)CNC(=O)[C@@H]1C[C@@H](O)CN1C(=O)[C@@H]1C[C@@H](O)CN1C(=O)[C@@H](N)CCCNC(=N)N)C(=O)O` [Example 22, Arg-Hyp-Hyp-Gly-Thi-Ser-DPhe-Thi-Arg] (H-R[Hyp][Hyp]G[2Thi]S[dF][2Thi]R-OH) gave a pA2/RUT [1] of 6.7.

Work on `N=C(N)NCCC[C@@H](N)C(=O)N[C@@H](CCCNC(=N)N)C(=O)N1C[C@H](O)C[C@H]1C(=O)N1CCC[C@H]1C(=O)NCC(=O)N[C@@H](Cc1cccs1)C(=O)N[C@@H](CO)C(=O)N[C@H](Cc1ccccc1)C(=O)N[C@@H](Cc1cccs1)C(=O)N[C@@H](CCCNC(=N)N)C(=O)O` [Example 64, DArg-Arg-Hyp-Pro-Gly-Thi-Ser-DPhe-Thi-Arg] (H-[dR]R[Hyp]PG[2Thi]S[dF][2Thi]R-OH) yielded a pA2/RUT [1] of 5.7.

For `N=C(N)NCCC[C@@H](N)C(=O)N[C@@H](CCCNC(=N)N)C(=O)N1C[C@H](O)C[C@H]1C(=O)N1C[C@H](O)C[C@H]1C(=O)NCC(=O)N[C@@H](Cc1cccs1)C(=O)N[C@@H](CO)C(=O)N[C@H](Cc1ccccc1)C(=O)N[C@@H](Cc1cccs1)C(=O)N[C@@H](CCCNC(=N)N)C(=O)O` [Example 65, DArg-Arg-Hyp-Hyp-Gly-Thi-Ser-DPhe-Thi-Arg] (H-[dR]R[Hyp][Hyp]G[2Thi]S[dF][2Thi]R-OH), the pA2/RUT [1] was 7.1.

`N=C(N)NCCC[C@H](NC(=O)[C@H](Cc1ccccc1)NC(=O)[C@@H](Cc1ccccc1)NC(=O)[C@H](CO)NC(=O)[C@H](Cc1ccccc1)NC(=O)CNC(=O)[C@@H]1CCCN1C(=O)[C@@H]1C[C@@H](O)CN1C(=O)[C@H](CCCNC(=N)N)NC(=O)[C@H](CCCCN)NC(=O)[C@@H](N)CCCCN)C(=O)O` [Example 72, Lys-Lys-Arg-Hyp-Pro-Gly-Phe-Ser-DPhe-Phe-Arg] (H-KKR[Hyp]PGFS[dF]FR-OH) was tested, and the pA2/RUT [1] was 5.6.

`N=C(N)NCCC[C@H](NC(=O)[C@H](Cc1cccs1)NC(=O)[C@@H](Cc1ccccc1)NC(=O)[C@H](CO)NC(=O)[C@H](Cc1cccs1)NC(=O)CNC(=O)[C@@H]1C[C@@H](O)CN1C(=O)[C@@H]1CCCN1C(=O)[C@H](CCCNC(=N)N)NC(=O)[C@H](CCCCN)NC(=O)[C@@H](N)CCCCN)C(=O)O` [Example 77, Lys-Lys-Arg-Pro-Hyp-Gly-Thi-Ser-DPhe-Thi-Arg] (H-KKRP[Hyp]G[2Thi]S[dF][2Thi]R-OH) gave a pA2/RUT [1] of 6.7.

“Arg-Hyp-Hyp-Gly-Thi-DPhe-CDF-Thi-Arg [Example 23]” gave a pA2/RUT [1, 4] of 6.5.

With “Arg-Pro-Pro-Gly-Phe-DPhe-CDF-Phe-Arg [Example 5]” the pA2/RUT [1, 4] was 4.9 and the pA2/GPI [3, 5] was 5.8.

For “Arg-Pro-Pro-Gly-Phe-Ser-DPal-Phe-Arg [Example 3]”, the pA2/RUT [1, 4] was 5.0 and the pA2/GPI [3, 5] was 4.8.

For “Arg-Pro-Pro-Gly-Thi-Ser-DPal-Thi-Arg [Example 8]”, the pA2/RUT [1, 4] was 4.2.

With “KKR[Hyp]G[2Thi]S[dF][2Thi]R [Example 19]” the pA2/RUT [1, 4] was 5.8.
